Among the data in paper PMC5766609 (Scientific Reports, 2018) are EC50 values, retold here.

The target in test [1] is T1, human glucagon receptor (GCGR) (Homo sapiens, UniProt P47871).
T1 construct: expressed in transfected cells; host or cells: CHO-JumpIn cells, stably transfected
Kind of test: cAMP assay on CHO-JumpIn cells stably transfected with human glucagon receptor (HitHunter cAMP).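 Also: peptides tested as 4-fold serial dilutions starting from a 2 µM solution, cells exposed 1 hr at RT in darkness, cAMP quantified against a cAMP standard curve.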 The class given is cell-based. Particulars: cAMP accumulation, CHO-JumpIn cells with human GCGR, value ± spread.
Method: (§1) Briefly, a 2 μM solution of peptide was prepared, and 4-fold serial dilutions were made. 150 nL of the above titration was then dispensed into an Optiplate384 using an Echo555. […] The HitHunter® cAMP Assay kit calibration curve was prepared following the manufacturer’s protocol (DiscoveRx-90-0075L). 30,000 cells/well were added to the peptides, spun briefly at 500 rpm for 15 s and incubated at RT in the dark for 1 hr. The assay was developed as per the manufacturer’s instructions. cAMP accumulation due to GLP1R agonism or GCGR agonism was measured using an EnVision platereader (PerkinElmer), and calibrated using the cAMP standard curve. Data were analyzed using Assay Data Analyzer (ADA).

The target of test [2] is T2, human GLP-1 receptor (GLP1R) (Homo sapiens, UniProt P43220).
T2 construct: expressed in transfected cells; host or cells: CHO-JumpIn cells, stably transfected
T2 sequence (P43220 24-463): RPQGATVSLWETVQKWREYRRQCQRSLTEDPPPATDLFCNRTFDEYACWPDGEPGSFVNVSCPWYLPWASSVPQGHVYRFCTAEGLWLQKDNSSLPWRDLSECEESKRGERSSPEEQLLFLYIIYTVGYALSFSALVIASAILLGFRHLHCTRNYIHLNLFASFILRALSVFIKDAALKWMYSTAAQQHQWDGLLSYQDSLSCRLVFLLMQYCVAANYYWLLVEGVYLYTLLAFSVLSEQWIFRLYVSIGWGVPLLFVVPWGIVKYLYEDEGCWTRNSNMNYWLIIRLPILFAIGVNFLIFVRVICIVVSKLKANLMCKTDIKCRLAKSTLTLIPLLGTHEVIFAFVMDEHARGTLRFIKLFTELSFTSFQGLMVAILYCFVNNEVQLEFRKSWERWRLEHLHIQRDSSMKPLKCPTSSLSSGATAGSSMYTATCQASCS
Nature of the test: cAMP assay on CHO-JumpIn cells stably transfected with human GLP-1 receptor (HitHunter cAMP).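 Also: peptides tested as 4-fold serial dilution series, cells exposed 1 hr at RT in the dark, cAMP quantified against a cAMP standard calibration curve.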 The class given is cell-based. As to conditions: Table 2, cAMP accumulation, buffer PBS, 0.1% BSA, 100 μM RO 20-1724, 20% serum, 1 hr at RT, value ± spread, read-out: EC50 GLP1R.
Method: as §1

[3] abbreviates: Table 2, buffer PBS, 0.1% BSA, 100 μM RO 20-1724, 20% serum, 1 hr at RT, read-out: EC50 GCGR.

Structures are written as SMILES. Where two headings read alike, the source gives them in different places. Residues, ends and D or L forms follow the SMILES beside them.

T1 sequence (P47871 26-477): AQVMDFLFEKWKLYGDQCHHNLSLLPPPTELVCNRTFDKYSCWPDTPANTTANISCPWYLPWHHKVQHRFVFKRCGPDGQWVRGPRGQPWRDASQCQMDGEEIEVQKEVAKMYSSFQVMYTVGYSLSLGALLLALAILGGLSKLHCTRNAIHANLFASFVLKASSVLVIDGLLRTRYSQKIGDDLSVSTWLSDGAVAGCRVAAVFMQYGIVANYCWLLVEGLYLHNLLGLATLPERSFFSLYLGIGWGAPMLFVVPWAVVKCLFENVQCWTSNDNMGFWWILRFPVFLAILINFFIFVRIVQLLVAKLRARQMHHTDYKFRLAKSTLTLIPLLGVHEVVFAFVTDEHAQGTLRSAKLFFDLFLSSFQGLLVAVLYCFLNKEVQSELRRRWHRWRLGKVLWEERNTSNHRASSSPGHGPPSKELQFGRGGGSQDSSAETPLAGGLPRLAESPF

As a reminder, the EC50 is the concentration giving half of the maximal effect. On to `CSCC[C@H](NC(=O)[C@H](CC(C)C)NC(=O)[C@H](Cc1c[nH]c2ccccc12)NC(=O)[C@H](CCC(N)=O)NC(=O)[C@@H](NC(=O)[C@H](Cc1ccccc1)NC(=O)[C@H](CC(=O)O)NC(=O)[C@H](CCC(N)=O)NC(=O)[C@H](C)NC(=O)[C@H](CCCNC(=N)N)NC(=O)[C@H](CCCNC(=N)N)NC(=O)[C@H](CO)NC(=O)[C@H](CC(=O)O)NC(=O)[C@H](CC(C)C)NC(=O)[C@H](Cc1ccc(O)cc1)NC(=O)[C@H](CCCCN)NC(=O)[C@H](CO)NC(=O)[C@H](Cc1ccc(O)cc1)NC(=O)[C@H](CC(=O)O)NC(=O)[C@H](CO)NC(=O)[C@H](Cc1c[nH]c2ccccc12)NC(=O)[C@H](Cc1ccccc1)NC(=O)[C@H](CC(N)=O)NC(=O)CNC(=O)[C@@H](NC(=O)[C@H](CO)NC(=O)[C@@H](N)Cc1c[nH]cn1)C(C)C)C(C)C)C(=O)N[C@@H](CC(C)C)C(=O)N[C@H](C(N)=O)[C@@H](C)O` [Peptide 1] (H-HSVGNFWSDYSKYLDSRRAQDFVQWLMLT-NH2), for which the results for the EC50 in test [1] (setting [3]) and in test [2] were 8.45 ± 2.67 nM and 16.7 ± 10.3 nM, respectively.

With `CSCC[C@H](NC(=O)[C@H](CC(C)C)NC(=O)[C@H](Cc1c[nH]c2ccccc12)NC(=O)[C@H](CCC(N)=O)NC(=O)[C@@H](NC(=O)[C@H](Cc1ccccc1)NC(=O)[C@H](CC(=O)O)NC(=O)[C@H](Cc1c[nH]cn1)NC(=O)[C@H](C)NC(=O)[C@H](CCCNC(=N)N)NC(=O)[C@H](CCCNC(=N)N)NC(=O)[C@H](CC(=O)O)NC(=O)[C@H](CCC(=O)O)NC(=O)[C@@H](NC(=O)[C@H](Cc1ccc(O)cc1)NC(=O)[C@H](CCCCN)NC(=O)[C@H](CO)NC(=O)[C@H](Cc1ccc(O)cc1)NC(=O)[C@H](CC(=O)O)NC(=O)[C@H](CO)NC(=O)[C@@H](NC(=O)[C@H](Cc1ccccc1)NC(=O)[C@@H](NC(=O)CNC(=O)[C@H](CCC(N)=O)NC(=O)[C@H](CO)NC(=O)[C@@H](N)Cc1c[nH]cn1)[C@@H](C)O)[C@@H](C)O)C(C)C)C(C)C)C(=O)N[C@@H](CC(N)=O)C(=O)N[C@H](C(N)=O)[C@@H](C)O` [Peptide 2] (H-HSQGTFTSDYSKYVEDRRAHDFVQWLMNT-NH2), the figures for the 50% effective concentration (EC50) in test [1] (setting [3]) and in test [2] were 2.24 ± 0.334 nM and 0.184 ± 0.006 nM, respectively.

Regarding `CSCC[C@H](NC(=O)[C@H](CC(C)C)NC(=O)[C@H](Cc1c[nH]c2ccccc12)NC(=O)[C@H](CCC(N)=O)NC(=O)[C@@H](NC(=O)[C@H](Cc1ccccc1)NC(=O)[C@H](CC(=O)O)NC(=O)[C@H](Cc1c[nH]c2ccccc12)NC(=O)[C@H](C)NC(=O)[C@H](C)NC(=O)[C@H](CCCNC(=N)N)NC(=O)[C@H](CCC(=O)O)NC(=O)[C@H](CC(=O)O)NC(=O)[C@H](CC(C)C)NC(=O)[C@H](Cc1ccc(O)cc1)NC(=O)[C@H](CCCCN)NC(=O)[C@H](CCCNC(=N)N)NC(=O)[C@H](Cc1ccc(O)cc1)NC(=O)[C@H](CC(=O)O)NC(=O)[C@H](CO)NC(=O)[C@@H](NC(=O)[C@H](Cc1ccccc1)NC(=O)[C@@H](NC(=O)CNC(=O)[C@H](CCC(N)=O)NC(=O)[C@H](CO)NC(=O)[C@@H](N)Cc1c[nH]cn1)[C@@H](C)O)[C@@H](C)O)C(C)C)C(=O)N[C@@H](CC(N)=O)C(=O)N[C@H](C(N)=O)[C@@H](C)O` [Peptide 3] (H-HSQGTFTSDYRKYLDERAAWDFVQWLMNT-NH2), the EC50 in test [1] (setting [3]) came out at 1.35 ± 0.173 nM; in test [2], 0.427 ± 0.022 nM.

Turning to `CC[C@H](C)[C@H](NC(=O)[C@H](CC(=O)O)NC(=O)[C@H](CC(C)C)NC(=O)[C@H](Cc1ccc(O)cc1)NC(=O)[C@H](CCCCN)NC(=O)[C@H](CO)NC(=O)[C@H](Cc1ccc(O)cc1)NC(=O)[C@H](CC(=O)O)NC(=O)[C@H](CO)NC(=O)[C@@H](NC(=O)[C@H](Cc1ccccc1)NC(=O)[C@@H](NC(=O)CNC(=O)[C@H](CCC(N)=O)NC(=O)[C@H](CO)NC(=O)[C@@H](N)Cc1c[nH]cn1)[C@@H](C)O)[C@@H](C)O)C(=O)NCC(=O)N[C@@H](CCCNC(=N)N)C(=O)N[C@@H](C)C(=O)N[C@@H](CCC(N)=O)C(=O)N[C@@H](CC(=O)O)C(=O)N[C@@H](Cc1ccccc1)C(=O)N[C@H](C(=O)N[C@@H](CCC(N)=O)C(=O)N[C@@H](Cc1c[nH]c2ccccc12)C(=O)N[C@@H](CC(C)C)C(=O)N[C@@H](CC(C)C)C(=O)N[C@@H](CC(N)=O)C(=O)N[C@H](C(N)=O)[C@@H](C)O)C(C)C` [Peptide 4] (H-HSQGTFTSDYSKYLDIGRAQDFVQWLLNT-NH2), the EC50 in test [1] (setting [3]) was found to be 0.026 ± 0.002 nM; in test [2], 1.33 ± 0.209 nM.

`CC[C@H](C)[C@H](N)C(=O)N[C@@H](CC(N)=O)C(=O)N[C@@H](Cc1c[nH]cn1)C(=O)N[C@@H](CCC(=O)O)C(=O)N[C@@H](CCC(N)=O)C(=O)N[C@@H](Cc1c[nH]c2ccccc12)C(=O)N[C@@H](C)C(=O)N[C@@H](Cc1ccccc1)C(=O)N[C@H](C(=O)N[C@@H](CO)C(=O)N[C@@H](CC(=O)O)C(=O)N[C@@H](Cc1ccc(O)cc1)C(=O)N[C@@H](CO)C(=O)N[C@@H](CCCCN)C(=O)N[C@@H](Cc1ccc(O)cc1)C(=O)N[C@@H](CC(C)C)C(=O)N[C@@H](CC(=O)O)C(=O)N[C@@H](CO)C(=O)N[C@@H](CCCNC(=N)N)C(=O)N[C@@H](CCCNC(=N)N)C(=O)N[C@@H](C)C(=O)N[C@@H](CCC(N)=O)C(=O)N[C@@H](CC(=O)O)C(=O)N[C@@H](Cc1ccccc1)C(=O)N[C@H](C(=O)N[C@@H](CCC(N)=O)C(=O)N[C@@H](Cc1c[nH]c2ccccc12)C(=O)N[C@@H](CC(C)C)C(=O)N[C@@H](CCSC)C(=O)N[C@@H](CC(N)=O)C(=O)N[C@H](C(N)=O)[C@@H](C)O)C(C)C)[C@@H](C)O` [Peptide 14] (H-INHEQWAFTSDYSKYLDSRRAQDFVQWLMNT-NH2): the EC50 in test [1] (setting [3]) was 2.6 ± 3.68 nM.

For `CC(C)C[C@H](NC(=O)[C@H](CC(C)C)NC(=O)[C@H](Cc1c[nH]c2ccccc12)NC(=O)[C@H](CCC(N)=O)NC(=O)[C@@H](NC(=O)[C@H](Cc1ccccc1)NC(=O)[C@H](CC(=O)O)NC(=O)[C@H](CCC(N)=O)NC(=O)[C@H](C)NC(=O)[C@H](CCCNC(=N)N)NC(=O)[C@H](CCCNC(=N)N)NC(=O)[C@H](CO)NC(=O)[C@H](CC(=O)O)NC(=O)[C@H](CC(C)C)NC(=O)[C@H](Cc1ccc(O)cc1)NC(=O)[C@H](CCCCN)NC(=O)[C@H](CO)NC(=O)[C@H](Cc1ccc(O)cc1)NC(=O)[C@H](CC(=O)O)NC(=O)[C@H](CO)NC(=O)[C@@H](NC(=O)[C@H](Cc1ccccc1)NC(=O)[C@@H](NC(=O)CNC(=O)[C@H](CCC(N)=O)NC(=O)[C@H](CO)NC(=O)[C@@H](N)Cc1c[nH]cn1)[C@@H](C)O)[C@@H](C)O)C(C)C)C(=O)N[C@@H](CC(=O)O)C(=O)N[C@@H](CO)C(N)=O` [Peptide 35], in test [2], the EC50 worked out at 0.018 ± 0.001 nM.

`CCCCCCCCCCCCCCCC(=O)N[C@@H](CCC(=O)N[C@@H](CCC(=O)NCCCC[C@H](NC(=O)[C@H](CC(=O)O)NC(=O)[C@H](CO)NC(=O)[C@@H](NC(=O)[C@H](Cc1ccccc1)NC(=O)[C@@H](NC(=O)CNC(=O)[C@H](CCC(N)=O)NC(=O)[C@@H](CO)NC(=O)[C@@H](N)Cc1c[nH]cn1)[C@@H](C)O)[C@@H](C)O)C(=O)N[C@@H](CO)C(=O)N[C@@H](CCCCN)C(=O)N[C@@H](Cc1ccc(O)cc1)C(=O)N[C@@H](CC(C)C)C(=O)N[C@@H](CC(=O)O)C(=O)N[C@@H](CO)C(=O)N[C@@H](CCCNC(=N)N)C(=O)N[C@@H](CCCNC(=N)N)C(=O)N[C@@H](C)C(=O)N[C@@H](Cc1c[nH]cn1)C(=O)N[C@@H](CC(=O)O)C(=O)N[C@@H](Cc1ccccc1)C(=O)N[C@H](C(=O)N[C@@H](CCC(N)=O)C(=O)N[C@@H](Cc1c[nH]c2ccccc12)C(=O)N[C@@H](CC(C)C)C(=O)N[C@@H](CC(C)C)C(=O)N[C@@H](CC(N)=O)C(=O)N[C@H](C(N)=O)[C@@H](C)O)C(C)C)C(=O)O)C(=O)O` [Peptide 36]: the half-maximal effective concentration (EC50) in test [1] (Table 3, engineered versus parent peptides, read-out: EC50 hGCGR) was determined as 0.023 ± 0.004 nM.
